The values below come from US6689805B2, “Pyrazole-3-one derivative, method for preparing the same, and pharmaceutical composition containing the same” (CJ Corp., priority 2002, dated 2004).

The target of data set [1] is T1, COX-1 (Homo sapiens, UniProt P23219).
T1 construct: endogenous in cells
The experiment in a line: Assay for the COX-1 inhibitory activity using U-937 (PGE2 inhibition). The class given is cell-based. Conditions: test compound 1 μM; U-937 human lymphoma cells; PGE2 vs DMSO control; read-out: Cyclooxygenase (COX) Inhibition (%) COX-1 (1 μM). On the procedure:
The collected cells were diluted with HBSS (x1, Hank's balanced salt solution) to a concentration of 1×10^6 cells/ml. 1 ml of the dilute cell solution was placed into each well of 12-well plates. 5 μl of 1 μM solution of a test compound in DMSO and 5 μl of DMSO as a control were added to the wells. The wells were incubated in CO2 incubator at 37° C. for 15 minutes. Separately, 10 mM stock solution of arachidonic acid in ethanol was diluted ten times in ethanol to prepare 1 mM solution of arachidonic acid. Arachidonic acid acts as a substrate. 10 μl of the 1 mM solution of arachidonic acid was added to each well and incubated at CO2 incubator at 37° C. for 30 minutes. The cell solution of each well was placed in a centrifuge test tube and centrifuged at 10,000 rpm at 4° C. for 5 minutes. The concentration of PGE2 in the collected cells and the supernatant was quantified by means of a monoclonal kit (Cayman Chemicals). The percentages of PGE2 inhibition in a group of the test compound-treated cells in relation to a group of the DMSO-treated cells were calculated. Based on the calculated values, the COX-1 inhibitory activities were evaluated.
(§1) The percentages of the COX inhibition were calculated according to the following equation:
(§2) % Inhibition=(concentration of PGE2 in test compound-untreated sample−concentration of PGE2 in test compound-treated sample) / (concentration of PGE2 in test compound-untreated sample)×100

Data set [2] deals with T2, COX-2 (Mus musculus, UniProt Q05769).
T2 construct: endogenous in cells
T2 sequence (Q05769 18-604): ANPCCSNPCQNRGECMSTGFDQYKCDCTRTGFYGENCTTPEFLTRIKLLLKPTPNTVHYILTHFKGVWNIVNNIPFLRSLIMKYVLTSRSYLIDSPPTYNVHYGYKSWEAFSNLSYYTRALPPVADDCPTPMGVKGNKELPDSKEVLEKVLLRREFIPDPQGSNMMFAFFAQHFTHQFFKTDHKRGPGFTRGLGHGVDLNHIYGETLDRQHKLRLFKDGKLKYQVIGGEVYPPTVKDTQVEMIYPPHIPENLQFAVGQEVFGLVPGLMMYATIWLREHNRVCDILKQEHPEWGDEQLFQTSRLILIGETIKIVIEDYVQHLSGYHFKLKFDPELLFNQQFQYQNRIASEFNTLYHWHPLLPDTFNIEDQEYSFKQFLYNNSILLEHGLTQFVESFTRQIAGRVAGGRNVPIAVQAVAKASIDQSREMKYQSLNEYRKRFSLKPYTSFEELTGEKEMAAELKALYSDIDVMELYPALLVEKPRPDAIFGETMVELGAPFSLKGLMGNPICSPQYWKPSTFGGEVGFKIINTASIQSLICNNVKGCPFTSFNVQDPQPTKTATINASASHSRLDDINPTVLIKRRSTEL
The experiment in a line: Assay for the COX-2 inhibitory activity using RAW 264.7 cell line (PGE2 inhibition). Conditions: RAW264.7, test compound 10 nM, RAW 264.7 cells, interferon + LPS induced, read-out: Cyclooxygenase (COX) Inhibition (%) COX-2 (10 nM). In kind it is cell-based. On the procedure: Each well was treated with 250 μM of aspirin and incubated at 37° C. for 2 hours. After the culture media were replaced with new culture media, the new culture media were treated with a test compound (10 nM) and incubated for 30 minutes. Then, each well was treated with interferon ? (100 units/ml) and lipopolysaccharide (LPS, 100 ng/ml) and incubated for 18 hours. The culture media were transferred to other test tubes. The concentration of PGE2 was quantified by means of the EIA kit (Cayman Chemicals).
as §1, §2

T1 sequence (P23219 24-599): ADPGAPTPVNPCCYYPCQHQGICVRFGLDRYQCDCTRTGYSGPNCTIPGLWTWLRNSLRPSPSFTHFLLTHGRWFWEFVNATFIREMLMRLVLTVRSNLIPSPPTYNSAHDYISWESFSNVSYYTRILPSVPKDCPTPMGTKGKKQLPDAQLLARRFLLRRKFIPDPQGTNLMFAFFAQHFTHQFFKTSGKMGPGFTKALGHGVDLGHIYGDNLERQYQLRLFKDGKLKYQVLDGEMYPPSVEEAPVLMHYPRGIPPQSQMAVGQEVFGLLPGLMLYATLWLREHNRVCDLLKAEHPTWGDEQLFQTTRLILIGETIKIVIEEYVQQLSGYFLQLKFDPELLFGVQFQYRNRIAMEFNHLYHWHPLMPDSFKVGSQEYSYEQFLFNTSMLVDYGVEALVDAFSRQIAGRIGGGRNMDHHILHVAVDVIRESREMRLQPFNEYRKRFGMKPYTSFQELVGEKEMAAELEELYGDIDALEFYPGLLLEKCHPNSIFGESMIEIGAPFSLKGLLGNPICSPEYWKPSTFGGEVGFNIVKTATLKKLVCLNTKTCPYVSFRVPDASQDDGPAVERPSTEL

Consider `COc1ccc(-c2c(-c3ccc(S(C)(=O)=O)cc3)n(C)n(C)c2=O)cc1` [Example 5, 5-(4-methanesulfonylphenyl)-4-(4-methoxyphenyl)-1,2-dimethyl-1,2-dihydropyrazole-3-one], for which the melting point (as a rule, the temperature of the solid-liquid transition) fell in the range of 245 to 247 °C. The inhibition (usually the drop in the measured response relative to a control, in per cent) at 1 µM in data set [1] is 10.5%. Further, in data set [2], the inhibition at 0.01 µM was 22.5%.
For `Cn1c(-c2ccc(S(C)(=O)=O)cc2)c(-c2ccccc2)c(=O)n1C` [Example 6, 5-(4-methanesulfonylphenyl)-1,2-dimethyl-4-phenyl-1,2-dihydropyrazole-3-one], in that order: 210 to 212 °C, 22.6% and 13.2%.
On to `Cn1c(-c2ccc(S(C)(=O)=O)cc2)c(-c2ccc(Cl)c(Cl)c2)c(=O)n1C` [Example 8, 4-(3,4-dichlorophenyl)-5-(4-methanesulfonylphenyl)-1,2-dimethyl-1,2-dihydropyrazole-3-one], for which the melting point was in the range of 240 to 242 °C.
As for `Cc1onc(-c2ccccc2)c1-c1ccc(S(N)(=O)=O)cc1` [Reference (Valdecoxib), Valdecoxib, reference compound], the inhibition at 1 µM in data set [1] was 28.8%.
`Cc1ccc(-c2c(-c3ccc(S(C)(=O)=O)cc3)n(C)n(C)c2=O)cc1` [Example 7, 5-(4-methanesulfonylphenyl)-1,2-dimethyl-4-(4-methylphenyl)-1,2-dihydropyrazole-3-one] came in with a melting point of 247 to 249 °C. Also, the inhibition at 1 µM in data set [1] turned out to be 36.5%. Also, the inhibition at 0.01 µM in data set [2] is 12.5%.
